From ChEMBL document CHEMBL1201862, “PubChem BioAssay data set” (2004)
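96-well plates; 48 h exposure; 5 concentrations. Endpoints by linear interpolation between flanking doses. Not reached: highest tested concentration assigned. The concentration for 50% growth inhibition is given as GI50.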 The source made the active and inactive calls. Cut-off read from the data, not from the text of the source: active = GI50 up to about 1.1 µM and inactive = higher.

Assays:
Test in all cases: NCI-60 cell line screen, 48 h
[1] = system: CAKI-1
[2] = system: LOX IMVI
[3] = system: UACC-257
[4] = system: RPMI-8226
[5] = system: PC-3
[6] = system: NCI/ADR-RES
[7] = system: SNB-19
[8] = system: HCC 2998
[9] = system: SW-620
[10] = system: DU-145
[11] = system: MDA-N
[12] = system: 786-0
[13] = system: HCT-116
[14] = system: A498
[15] = system: SK-MEL-28
[16] = system: SK-MEL-5
[17] = system: OVCAR-4
[18] = system: K562
[19] = system: Hs-578T
[20] = system: ACHN

| Structure (SMILES) | GI50 [1] | GI50 [2] | GI50 [3] | GI50 [4] | GI50 [5] | GI50 [6] | GI50 [7] | GI50 [8] | GI50 [9] | GI50 [10] | GI50 [11] | GI50 [12] | GI50 [13] | GI50 [14] | GI50 [15] | GI50 [16] | GI50 [17] | GI50 [18] | GI50 [19] | GI50 [20] |
| --- | --- | --- | --- | --- | --- | --- | --- | --- | --- | --- | --- | --- | --- | --- | --- | --- | --- | --- | --- | --- |
| c1ccc(-c2cc(-c3cc(-c4ccccn4)[nH]n3)n[nH]2)nc1 | > 100 µM (inactive) | 94.4 µM (inactive) | > 100 µM (inactive) | 70.6 µM (inactive) | > 100 µM (inactive) | 44.5 µM (inactive) | > 100 µM (inactive) | 28.6 µM (inactive) | > 100 µM (inactive) | 95.7 µM (inactive) | 77.3 µM (inactive) | 41.9 µM (inactive) | 27.7 µM (inactive) | > 100 µM (inactive) | > 100 µM (inactive) | > 100 µM (inactive) | > 100 µM (inactive) | 8.45 µM (inactive) | > 100 µM (inactive) | > 100 µM (inactive) |
| CC1=NN(C(=O)CC(=O)Nc2ccc(Cl)cc2)C(=O)C1/N=N\c1ccc(S(=O)(=O)c2ccc(/N=N/C3C(=O)N(C(=O)CC(=O)Nc4ccc(Cl)cc4)N=C3C)cc2)cc1 (stereo not drawn) | > 100 µM (inactive) | > 100 µM (inactive) | > 100 µM (inactive) | > 100 µM (inactive) | > 100 µM (inactive) | > 100 µM (inactive) | 61.5 µM (inactive) | > 100 µM (inactive) | > 100 µM (inactive) | > 100 µM (inactive) | > 100 µM (inactive) | > 100 µM (inactive) | > 100 µM (inactive) | > 100 µM (inactive) | > 100 µM (inactive) | 95.7 µM (inactive) | > 100 µM (inactive) | 77.1 µM (inactive) | > 100 µM (inactive) | 24.7 µM (inactive) |
| N/C(=N\Nc1ccc(S(N)(=O)=O)cc1)c1cnccn1 | > 100 µM (inactive) | > 100 µM (inactive) | > 100 µM (inactive) | > 100 µM (inactive) | > 100 µM (inactive) | > 100 µM (inactive) | > 100 µM (inactive) | > 100 µM (inactive) | > 100 µM (inactive) | > 100 µM (inactive) | > 100 µM (inactive) | > 100 µM (inactive) | > 100 µM (inactive) | > 100 µM (inactive) | > 100 µM (inactive) | > 100 µM (inactive) | > 100 µM (inactive) | > 100 µM (inactive) | > 100 µM (inactive) | > 100 µM (inactive) |
| C=C1CC[C@@H]2[C@](C)(COC(=O)CCC(=O)O)CCC[C@@]2(C)[C@@H]1CCC1=CC(=O)OC1 | > 100 µM (inactive) | > 100 µM (inactive) | > 100 µM (inactive) | > 100 µM (inactive) | > 100 µM (inactive) | > 100 µM (inactive) | > 100 µM (inactive) | > 100 µM (inactive) | > 100 µM (inactive) | 5.97 µM (inactive) | > 100 µM (inactive) | > 100 µM (inactive) | > 100 µM (inactive) | > 100 µM (inactive) | > 100 µM (inactive) | 42.9 µM (inactive) | > 100 µM (inactive) | > 100 µM (inactive) | > 100 µM (inactive) | > 100 µM (inactive) |
| CCOP(C)(=O)C(Nc1ccc(F)cc1)c1ccc(F)cc1 (stereo not drawn) | > 100 µM (inactive) | > 100 µM (inactive) | > 100 µM (inactive) | > 100 µM (inactive) | > 100 µM (inactive) | > 100 µM (inactive) | > 100 µM (inactive) | > 100 µM (inactive) | > 100 µM (inactive) | > 100 µM (inactive) | > 100 µM (inactive) | > 100 µM (inactive) | > 100 µM (inactive) | > 100 µM (inactive) | > 100 µM (inactive) | > 100 µM (inactive) | > 100 µM (inactive) | > 100 µM (inactive) | > 100 µM (inactive) | > 100 µM (inactive) |
| O=C1NC2(CCCCC2)C(=O)N1CCN(CCCl)CCCl [SPIROMUSTINE] | 41.8 µM (inactive) | 104 µM (inactive) | 218 µM (inactive) | 134 µM (inactive) | > 25 µM (inactive) | 136 µM (inactive) | 187 µM (inactive) | > 230 µM (inactive) | 102 µM (inactive) | > 25 µM (inactive) | > 25 µM (inactive) | > 25 µM (inactive) | 190 µM (inactive) | > 250 µM (inactive) | 97.5 µM (inactive) | > 241 µM (inactive) | > 239 µM (inactive) | 214 µM (inactive) | > 25 µM (inactive) | 23.1 µM (inactive) |
| COC(=O)/C(=C(\C)NC(C)=O)c1c(C(=O)OC)[nH]c2ccccc12 | > 100 µM (inactive) | > 100 µM (inactive) | > 100 µM (inactive) | > 100 µM (inactive) | > 100 µM (inactive) | > 100 µM (inactive) | > 100 µM (inactive) | > 100 µM (inactive) | > 100 µM (inactive) | > 100 µM (inactive) | > 100 µM (inactive) | > 100 µM (inactive) | > 100 µM (inactive) | > 100 µM (inactive) | > 100 µM (inactive) | > 100 µM (inactive) | > 100 µM (inactive) | > 100 µM (inactive) | > 100 µM (inactive) | > 100 µM (inactive) |
| O=[N+]([O-])c1ccc2c(c1)/C(=N/N=C1c3ccccc3Cc3ccccc31)c1cc([N+](=O)[O-])cc([N+](=O)[O-])c1-2 | 3.6 µM (inactive) | 2.24 µM (inactive) | 2.08 µM (inactive) | 4.39 µM (inactive) | 2.76 µM (inactive) | 2.19 µM (inactive) | 7.33 µM (inactive) | 5.85 µM (inactive) | 3.28 µM (inactive) | 5.82 µM (inactive) | 3.36 µM (inactive) | 1.72 µM (inactive) | 1.57 µM (inactive) | 5.75 µM (inactive) | 3.45 µM (inactive) | 4.42 µM (inactive) | 1.73 µM (inactive) | 3.7 µM (inactive) | 2.86 µM (inactive) | 2.99 µM (inactive) |
| CCN(C)c1nc(N(C)CC)c2nc(N(C)CC)nc(N(C)CC)c2n1 | > 100 µM (inactive) | > 100 µM (inactive) | > 100 µM (inactive) | > 100 µM (inactive) | > 100 µM (inactive) | > 100 µM (inactive) | > 100 µM (inactive) | > 100 µM (inactive) | > 100 µM (inactive) | > 100 µM (inactive) | > 100 µM (inactive) | > 100 µM (inactive) | > 100 µM (inactive) | > 100 µM (inactive) | > 100 µM (inactive) | > 100 µM (inactive) | > 100 µM (inactive) | > 100 µM (inactive) | > 100 µM (inactive) | > 100 µM (inactive) |
| O=C1c2ccccc2-c2nnc3c(c21)Cc1ccccc1C3 | > 10 µM (inactive) | > 10 µM (inactive) | – | > 10 µM (inactive) | 9.53 µM (inactive) | > 10 µM (inactive) | > 10 µM (inactive) | > 10 µM (inactive) | > 10 µM (inactive) | > 10 µM (inactive) | > 10 µM (inactive) | > 10 µM (inactive) | > 10 µM (inactive) | > 10 µM (inactive) | > 10 µM (inactive) | > 10 µM (inactive) | > 10 µM (inactive) | > 10 µM (inactive) | > 10 µM (inactive) | > 10 µM (inactive) |
| Cc1cc(O)c2c(c1)C(=O)C=C(Br)C2=O | 12.5 µM (inactive) | 12.8 µM (inactive) | 13.1 µM (inactive) | 6.75 µM (inactive) | 17.8 µM (inactive) | 19.2 µM (inactive) | > 65.8 µM (inactive) | > 43.7 µM (inactive) | 3.42 µM (inactive) | 12.4 µM (inactive) | 15.3 µM (inactive) | 17.5 µM (inactive) | 16.6 µM (inactive) | 18.9 µM (inactive) | 15.4 µM (inactive) | 14.4 µM (inactive) | 11.8 µM (inactive) | 0.807 µM (active) | 13 µM (inactive) | 15.6 µM (inactive) |
| Cc1csc2nc(-c3cccc([N+](=O)[O-])c3)c(/C=N/N=C(N)N)n12 | 2.73 µM (inactive) | 1.81 µM (inactive) | 1.78 µM (inactive) | 1.86 µM (inactive) | 1.63 µM (inactive) | 6.27 µM (inactive) | 1.9 µM (inactive) | < 0.01 µM (active) | 1.71 µM (inactive) | 2.19 µM (inactive) | 1.67 µM (inactive) | 1.57 µM (inactive) | 1.7 µM (inactive) | 0.933 µM (active) | 1.71 µM (inactive) | 1.55 µM (inactive) | 1.78 µM (inactive) | 1.98 µM (inactive) | 2.18 µM (inactive) | 1.8 µM (inactive) |
| CCC(=O)COc1ccc(NC(NC(=O)C(C(F)(F)F)C(F)(F)F)(C(F)(F)F)C(F)(F)F)cc1 | 36.1 µM (inactive) | 28.6 µM (inactive) | 53.7 µM (inactive) | 16.9 µM (inactive) | 48.1 µM (inactive) | 18.9 µM (inactive) | 46.9 µM (inactive) | > 100 µM (inactive) | 41.3 µM (inactive) | 22.2 µM (inactive) | 28.3 µM (inactive) | 23.1 µM (inactive) | 20.6 µM (inactive) | 60.4 µM (inactive) | 59.4 µM (inactive) | 42.3 µM (inactive) | 35.6 µM (inactive) | – | 31 µM (inactive) | 33.5 µM (inactive) |
| Cc1ccc(C2=CC(=O)/C(=C\C(=O)c3ccc(Cl)cc3)O2)cc1 | 2.3 µM (inactive) | 1.43 µM (inactive) | 0.1 µM (active) | 2.08 µM (inactive) | 2.43 µM (inactive) | 15.5 µM (inactive) | 49.2 µM (inactive) | 27.4 µM (inactive) | 2.39 µM (inactive) | 32.6 µM (inactive) | 3.2 µM (inactive) | 9.95 µM (inactive) | 14.3 µM (inactive) | 27.2 µM (inactive) | 16.9 µM (inactive) | 14.5 µM (inactive) | 15.9 µM (inactive) | 4.15 µM (inactive) | 23.9 µM (inactive) | 5.09 µM (inactive) |
